In patent US10344052B2, “Targeting peptides and uses thereof” (Health Research, Inc., priority 2013, dated 2019):

These sequences were tested on ADT-perturbed human prostate cancer vasculature (assay: In vivo selection of Ph.D.-12 phage display library against ADT-perturbed human prostate cancer xenografts, NextGen sequencing of recovered phage). Conditions: CaP Tissue Specimen 1; xenograft in SCID mouse, 72 h after ADT.
Description: Male SCID mice were castrated and pre-implanted with silastic tubing to provide sustained-release of testosterone to maintain human serum levels testosterone in the host mouse and to facilitate castration/androgen deprivation (ADT). Human prostate tumor tissue was prepared for transplantation by cutting the radical prostatectomy surgical remnant in ViaSpan into approximately 1.0 mm^3 to 2.0 mm^3 wedges. Tissue was transplanted, into individual incisions in the skin; four pieces of tissue were transplanted on each flank of mice anesthetized with isoflurane. Each piece of tumor tissue was dipped into Matrigel, inserted into an incision, and the incisions closed with tissue glue.
Anastamosis of the human vasculature of the prostate cancer xenografts to the host mouse vascular system occurred between Days 5 and 6 after tissue transplantation, and the vasculature had stabilized by Day 21 after transplantation.
Seventy-two hours after initiation of ADT, the host mouse was anesthetized with acepromazine/ketamine/xylazine and the peptide-phage display library introduced systemically by intra-cardiac injection into the right ventricle. The Ph.D.-12 phage library (NEB, Ipswich, Mass.) was injected at a concentration of 1.2×10^11 pfu in 100 μL. The phage library was allowed to circulate through the mouse host for 15 minutes. At the conclusion of the incubation the vascular volume was replaced by perfusion (40 ml) with PBS to remove unbound phage. […] The xenografts were excised and placed into an eppendorf tube containing 0.5 mL phage elution buffer (0.2 M Glycine-HCl pH 2.2, 0.5% BSA) and the xenografts homogenized with a rotor/stator homogenizer on ice. The phage containing homogenate was cleared by centrifugation at 20,800×G for 5 minutes, and neutralization buffer (Tris-HCl pH 9.1) added to the supernatant. The concentration of phage in the eluate was established by titration: serial 10-fold dilutions of the neutralized phage eluate (10 μl) were added to 200 μL of a mid-log culture of host bacteria (ER2738), the cells/phage mixed with 3.5 mL of molten top agar (48° C.), and plated onto LB. Plates were incubated at 37° C. overnight and blue plaques were counted for determination of pfu. Based on the pfu, an aliquot of the neutralized phage eluate that contained a standardized number of phage was amplified by addition to a 20 mL flask of LB/Tet inoculated with 200 μL of an overnight culture of ER2738, and the culture incubated for 4 hours. The culture was cleared of bacteria by centrifugation, the supernatant treated with ⅙ volume of PEG/NaCl (20% (w/v) PEG-8000, 2.5M NaCl), refrigerated overnight for phage precipitation, and phage recovered by centrifugation. The final phage pellet was resuspended in […] of TBS and titered (as described above). For all in vivo selections the input phage held constant at 1.2×10^11 phage per mouse.
Following the third sequential round of in vivo selection against tissue from a single patient, the recovered phage population was titered, diluted and plated at a concentration to yield approximately 100 plaques per plate. Individual plaques were picked and amplified for conventional DNA sequencing to verify that a diversity of peptides was selected. Subsequently, the region of the phage genome that contained the random peptides embedded in the pIII protein were amplified by PCR from all selected phage libraries in preparation for Next Gen Sequencing. PCR primers were designed that flanked the hyper-variable region of the phage genome, the region containing the peptide inserted into the pIII protein: (FWD:—3gIII: 5′-CCTTTCTATTCTCACTCTGCT-3′ (SEQ ID NO:98); REV:—155gIII: 5′-CCGTAACACTGAGTTTCGTCA-3′ (SEQ ID NO:99)). The amplified segments were the templates for the NextGen DNA sequencing process. Templates were quantified and concentrations normalized and underwent 454 Next Gen sequencing using 500 ng of amplified template DNA at a concentration of […]. […]

Point of comparison: TMGFTAPRFPHY, “Recovery of Candidate Peptides Percent of Total Phage After 3 Cycles of Selection” value 26.5%. Against it:
- AETVESCLAKSH — lower, 0.99%
- DPKFPQNSHLIT — lower, 0.63%
- DQHGFMHIFDL — lower, 0.4%
- GAMHLPWHMGT — lower, 0.21%
- HSAQPVKSKAWL — lower, 0.3%
- KPPQTNTSAPYLP — higher, 27.3%
- LLADTTHHRWT — lower, 0.1%
- SPHWQPNAI — lower, 3.29%
- TLQRTHFPPAFS — lower, 9.58%

Same assay, conditions: CaP Tissue Specimen 2; xenograft in SCID mouse, 72 h after ADT

Point of comparison: SPHWQPNAI, “Recovery of Candidate Peptides Percent of Total Phage After 3 Cycles of Selection” value 1.53%. Against it:
- AETVESCLAKSH — lower, 0.5%
- DPKFPQNSHLIT — lower, 0.35%
- DQHGFMHIFDL — lower, 0.1%
- GAMHLPWHMGT — higher, 46.3%
- HSAQPVKSKAWL — lower, 0.2%
- KPPQTNTSAPYLP — higher, 5.48%
- LLADTTHHRWT — lower, 0.1%
- TLQRTHFPPAFS — higher, 7.57%
- TMGFTAPRFPHY — higher, 4.78%

Same assay, conditions: in words

With GAMHLPWHMGTL the recovery was “high recovery”.

Same assay, conditions: third round of in vivo selection, data of the two tumor specimens combined

Point of comparison: TLQRTHFPPAFS, “# clones recovered” value 7988. Against it:
- KPPQNTSAPLSS — lower, 3
- KPPQNTSAPY — lower, 2
- KPPQNTSAPYLP — lower, 659
- KPPQNTSAPYLR — lower, 2
- KPPQNTSCAFIF — lower, 2
- SPHWQPNAIFVN — lower, 36
- SPHWQPNAIL — lower, 2
- SPHWQPNAILL — lower, 2
- SPHWQPNAILLM — lower, 17
- TLQRIHFPPAFS — lower, 5
- TLQRTHFPLAFS — lower, 3
- TLQRTHFPPA — lower, 30
- TLQRTHFPPAAG — lower, 3
- TLQRTHFPPAFF — lower, 22
- TLQRTHFPPAFP — lower, 3
- TLQRTHFPPAFR — lower, 126
- TLQRTHFPPAFW — lower, 3
- TLQRTHFPPARR — lower, 3
- TLQRTHFPPGVF — lower, 5
- TLQRTHFPPVVF — lower, 19
- TLQRTHFPPVVS — lower, 8
- TLQRTHFPRLFG — lower, 3
- TLQRTHFPRRFG — lower, 3
- TLQRTHFPRRFR — lower, 6
- TLQRTHFPSA — lower, 6
- TLQRTHFPSG — lower, 47
- TLQRTHFPSGV — lower, 19
- TLQRTHFPSGVF — lower, 32
- TLQRTHFPSGVS — lower, 14
- TLQRTHFRPAF — lower, 6
- TLQRTHFRPAFR — lower, 21
- TLQRTHFRRRF — lower, 5
- TLQRTHFRRRFG — lower, 95
- TLQRTHFSAGVF — lower, 116
- TLQRTHFSPAFS — lower, 4
- TLQRTHFSVR — lower, 4
- TLQRTLFPPVVS — lower, 14
- TLQRTLFSAGRF — lower, 32
- TLQRTLFSAGVF — lower, 9
- TMGFTAPRFP — lower, 9
- TMGFTAPRFPAL — lower, 2
- TMGFTAPRFPHC — lower, 2
- TMGFTAPRFPHH — lower, 3
- TMGFTAPRFPHL — lower, 4
- TMGFTAPRFPHM — lower, 2
- TMGFTAPRFPHQ — lower, 8
- TMGFTAPRFPHR — lower, 4
- TMGFTAPRFPLL — lower, 6
- TMGFTAPRFPSV — lower, 2
- TMGFTAPRFQHY — lower, 2
- TMGFTAPRFRIM — lower, 5
- TMGFTAPRRGAV — lower, 2
- TMGFTAPWFPHY — lower, 2
- TMGLTHSRVRIE — lower, 2
- TXGFTAPRFPHY — lower, 47
